Results from US8192717B2, “Composition for diagnosing amyloid-related diseases” (Nagasaki University, priority 2004, dated 2012).

Key:
[1] = biological target: T1, Aβ(1-40) aggregates (Homo sapiens, UniProt P05067); assay: In vitro binding of [125I]-labelled compounds to Aβ aggregates (filtration, radioactivity on filter); conditions: [125I]-labelled compound; radioactivity remaining on filter in presence vs absence of Aβ aggregates
T1 construct: The amyloid β protein (Human, 1-40) [HCl form]; purchased Peptide Institute, Inc
T1 sequence (P05067 672-711 limits assumed): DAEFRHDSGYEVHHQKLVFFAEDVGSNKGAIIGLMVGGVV
Description: (§1) Aβ aggregates was dissolved in a buffer (pH 7.4) that contained 10 mM sodium phosphate and 1 mM EDTA, resulting in a concentration of 0.5 mg/ml. Thereafter, the obtained solution was incubated at 37° C. for 36 to 42 hours. A binding experiment was carried out using 12×75 mm borosilicate glass tubes. […] The obtained mixture was left at room temperature for 3 hours. Non-specific bond was calculated using nonradioactive compound 11 (1 μM). […] The radioactivity of a substance remaining in the filter used in filtration was measured with a γ counter. With regard to [^125I] compound 11, the Kd value thereof was calculated by the Scatchard analysis. In addition, using [^125I] compound 11 as a radioactive ligand, an inhibition experiment was carried out by the following method using the Aβ(1-40) aggregates and the Aβ(1-42) aggregates. […] The obtained mixture was left at room temperature for 3 hours. Non-specific bond was calculated using nonradioactive compound 11 (1 μM). The 50% inhibitory concentration was calculated using GraphPad Prism (GraphPad Software), and the inhibition constant (Ki value) was calculated according to the formula of Cheng-Prusoff, Ki=IC50/(1+[L]/Kd). In this formula, [L] represents the concentration of [^125I] compound 11, and Kd represents the dissociation constant of [^125I] compound 11 to the Aβ(1-40) aggregates and the Aβ(1-42) aggregates.

[2] = test system: senile plaque amyloid, cerebrovascular amyloid and neurofibrillary degeneration in brain tissues of patient with Alzheimer's disease; assay: Binding experiment using brain tissues of patient with Alzheimer's disease (fluorescence microscopy of sections); set-up: species or system human; conditions: 100 nM, room temperature, 10 minutes; temporal lobe sections
Description: Tissues at the temporal lobe site of the brain of a patient with Alzheimer's disease were fixed with formalin, and were then embedded in paraffin. A section with a thickness of 5 μm was prepared from the paraffin block, and the paraffin was then removed by an ordinary treatment with xylene and ethanol (Lippa, C. F., Nee, L. E., Mori, H & George-Hyslop, P. (1998) The Lancet 352:1117-1118). As the final stage, neutralization was carried out with a phosphate buffer. Thereafter, compounds 10, 11, 19, and 20 were reacted in a concentration of 100 nM at room temperature for 10 minutes. Thereafter, the reaction product was washed with a phosphate buffer three times, and then with 50% ethanol three time, so as to terminate the reaction. Thereafter, the resultant was dehydrated by treatments with alcohol and xylene, followed by embedding with Entellan(R) new. The bond of the above compound was confirmed by image observation with a CCD camera (M-3204C) included with a fluorescence microscope (Olympus BX50).

[3] = biological target: T2, Aβ(1-42) aggregates (Homo sapiens, UniProt P05067); assay: Inhibition experiment using [125I] compound 11 as radioactive ligand, Aβ(1-42) aggregates; format: binding; conditions: radioligand [125I] compound 11; Cheng-Prusoff; read-out: Inhibition constant (Ki, nM) Aβ(1-42)
T2 construct: the amyloid β protein (Human, 1-42) [TFA form]; purchased Peptide Institute, Inc
T2 sequence (P05067 672-713 limits assumed): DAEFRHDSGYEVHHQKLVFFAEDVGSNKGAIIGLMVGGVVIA
Description: as §1

[4] = Radioactivity distribution in mouse body after intravenous administration of radioiodine labeled forms; conditions: normal mice, intravenous, [125I]-labelled form
Description: Thereafter, 100 μl (0.5 to 1 μCi) of each labeled form was intravenously administered to each group consisting of three to five 5-week-old ddY male mice (25 to 30 g). 2, 10, 30, and 60 minutes after the intravenous administration, such mice were decapitated, and blood was collected. Thereafter, organs were excised, and the weight and radioactivity thereof were then measured.

[5] = biological target: T1, Aβ(1-40) aggregates; assay: Inhibition experiment using [125I] compound 11 as radioactive ligand, Aβ(1-40) aggregates; format: binding; conditions: radioligand [125I] compound 11; Cheng-Prusoff; read-out: Inhibition constant (Ki, nM) Aβ(1-40)
Description: as §1

[6] = biological target: T1, Aβ(1-40) aggregates; assay: Saturation experiment of [125I] compound 11 with Scatchard analysis, Aβ(1-40) aggregates; format: binding; conditions: read-out: dissociation equilibrium constant (Kd value)
Description: as §1

[7] = biological target: T2, Aβ(1-42) aggregates; assay: Saturation experiment of [125I] compound 11 with Scatchard analysis, Aβ(1-42) aggregates; format: binding; conditions: read-out: dissociation equilibrium constant (Kd value)
Description: as §1

Compound | bindability to the Aβ aggregates [1] | recognition of and binding to amyloid plaque, senile plaque having a neurodegenerative projection, cerebrovascular amyloid and neurofibrillary degeneration [2] | Ki [3] [nM] | rate of disappearance from the brain (rank among flavone derivatives) [4] | Ki [5] [nM] | bindability to senile plaque having a neurodegenerative projection and to neurofibrillary degeneration [2] | binding to cerebrovascular amyloid [2] | binding to senile plaque [2] | Kd [6] [nM] | Kd [7] [nM]
CNc1ccc(-c2cc(=O)c3cc(I)ccc3o2)cc1 [compound 10, 6-iodo-4′-methylaminoflavone] | high bindability | recognize amyloid plaque, senile plaque having a neurodegenerative projection, cerebrovascular amyloid and neurofibrillary degeneration, and bind thereto | 30 ± 3.4 | almost the same as that of [^125I] compound 11 | 22.6 ± 3.4 |  |  |  |  | 
CN(C)c1ccc(-c2cc(=O)c3cc(I)ccc3o2)cc1 [compound 11, 6-iodo-4′-dimethylaminoflavone] | high bindability |  | 15.6 ± 2.4 |  | 13.2 ± 0.2 | has bindability | specifically binds to cerebrovascular amyloid | specifically binds to senile plaque | 12.3 ± 2.3 | 17.6 ± 5.7
COc1ccc(-c2cc(=O)c3cc(I)ccc3o2)cc1 [compound 19, 6-iodo-4′-methoxyflavone] | high bindability | recognize amyloid plaque, senile plaque having a neurodegenerative projection, cerebrovascular amyloid and neurofibrillary degeneration, and bind thereto | 38.3 ± 8.1 | fastest | 29 ± 3.2 |  |  |  |  | 
